Results taken from the METLIN SMRT retention time set (Domingo-Almenara et al. 2019).

Assay: gradient 5% acetonitrile 3 min, to 50% in 2 min, to 85% in 15 min, held 3 min, 100 µL/min
Settings: column: Zorbax Extend-C18 2.1 x 50 mm; eluents: water / acetonitrile, 0.1% formic acid
Summary of the method: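 Values are retention times taken from adduct peaks that software picked and an analyst inspected. The pure standards were run as mixtures of ~100 molecules on HPLC linked to a quadrupole time-of-flight mass spectrometer, in positive and negative ionization mode. A Zorbax Extend-C18 column (2.1 × 50 mm, 1.8 μm) was used at 100 μL/min with water and acetonitrile, each including 0.1% formic acid.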

RP-LC retention time [s]	Compound
689	O=C(c1cnccn1)N1CCCn2nc(-c3cccs3)cc2C1
685	O=C1NCCOc2ccc(NS(=O)(=O)c3ccc(F)c(Cl)c3)cc21
750	O=C(Cn1c(-c2cnccn2)nc2ccccc21)N1CCN(c2ccccc2F)CC1
631	Cc1nc([C@@H]2CN(S(=O)(=O)c3ccc(Cl)s3)C[C@H]2C(N)=O)n[nH]1
682	CC(=O)N1CCc2sc(C(=O)NCc3ccc4c(c3)OCO4)cc2C1
638	CCOC(=O)c1noc2ncnc(Nc3ccc(CN4CCN(CC)CC4)cc3)c12
843	O=C(NCc1cccs1)C1CCCN(c2nc3ccsc3c(=O)n2-c2ccc(F)cc2)C1 (stereo not drawn)
940	CCCCN(Cc1ccco1)c1nc(-c2ccc(OC)cc2)nc2ccccc12
633	COc1ccc(C2CC(=O)c3cnc(N4CCN(c5ccccn5)CC4)nc3C2)cc1OC (stereo not drawn)
634	N#Cc1ccc(S(=O)(=O)N2CCC(Cc3nc(-c4cccnc4)n[nH]3)C2)cc1 (stereo not drawn)
846	CCn1nnc2cc(-c3noc(C(C)NS(=O)(=O)c4ccc(C)cc4)n3)ccc21 (stereo not drawn)
632	CCc1nnc(-c2cc(NC(=O)c3ccc4nc[nH]c4c3)c(C)s2)o1
733	Cc1cccc(NC(=O)N2CCN(c3nc(C)cc(Nc4ccccc4)n3)CC2)c1
1050	Cc1ccc(C)c(N2CCN(C(=O)c3ccc4c(c3)NC(=O)C3CCCCN43)CC2)c1 (stereo not drawn)
841	CCOC(=O)c1c(S(=O)(=O)N2CCC(C(=O)NCc3ccc(C)cc3)CC2)c(C)n(C)c1C
1040	CSc1cccc(NC(=O)N2CCCC2c2nc(-c3ccc(F)cc3)no2)c1 (stereo not drawn)
1000	O=C(Cn1c(=O)cc(-c2nc(-c3ccccc3)no2)c2ccccc21)N1CCCC1
853	Cc1c(S(=O)(=O)NCc2ccco2)c(C)n(C)c1-c1nnc(C2CCC2)o1
525	Nc1cccc(N2CCn3c(nc4ccccc43)C2)c1
880	Cc1cccc(CNC(=O)Cc2csc3nc(-c4ccccc4)cn23)c1
1260	CC(CCc1ccccc1)NC(=O)c1cc2sccc2n1Cc1ccc(Cl)cc1 (stereo not drawn)
718	CN1C(=O)COc2cc(-c3noc(C(=O)NC4CC4)n3)ccc21

RP-LC retention time [s]	Compound
742	CN(CC1(C)CCOCC1)C(=O)COc1ccccc1
720	CCn1cc(CN2CCC(C(=O)NCc3ccc(C)cc3)CC2)c2cc(OC)ccc21
566	CC(C)N(CC#CCNC(=O)Cc1ccccc1Cl)C(C)C
854	CN1C(=O)Cc2ccccc2C1C(=O)N1CCN(c2ccc(Cl)cc2)CC1 (stereo not drawn)
705	CCC1CN2C=NC(N3CCN(S(=O)(=O)c4cc(Cl)ccc4OC)CC3)=CC2=N1 (stereo not drawn)
956	COc1ccc(Cl)cc1NC(=O)CN1C(=O)CCSc2ccccc21
626	Cc1[nH]c(C(=O)N2CCC(CC(=O)NCCN3CCCCCC3)CC2)c(C)c1C
620	COc1cc(NC(=O)N2CCN(c3cc(-c4cccc(OC)c4)ncn3)CC2)cc(OC)c1
846	CC(C)CNC(=O)N1CCC(c2noc(-c3ccccc3)n2)C1 (stereo not drawn)
741	CCOc1ccc(C(=O)NC2CCN(c3cc(-c4ccccc4)[nH]n3)C2)cc1 (stereo not drawn)
722	O=C(Cc1nnc(-c2ccc3ncccc3c2)o1)NCc1cccc(Cl)c1
719	N#CCNC(=O)c1ccc(-c2ccnc(Nc3ccc(N4CCOCC4)cc3)n2)cc1
739	CCCN1CCN(c2ccc(-c3nc(-c4cccc(F)c4)no3)cn2)CC1
1240	Cc1ccc(Cl)cc1NS(=O)(=O)c1cc(-c2cc(C(F)(F)F)on2)sc1C
615	COCCCN1CN=C(Nc2nc(C)c3cccc(OC)c3n2)NC1
639	O=C(Nc1cccc2ccccc12)N1CCOCC1
883	CCc1nc(-c2c(C)cc(C)nc2NC(=O)c2ccc(C)c(F)c2)no1
902	O=c1ccn(-c2cccc(F)c2)nc1-c1nc(-c2ccc(F)cc2)no1
740	O=c1ccc(-c2nc(-c3ccc4c(c3)OCO4)no2)cn1Cc1cc(=O)n2ccccc2n1
763	Cc1cc(Nc2ccccc2)nc(N2CCN(C(=O)Nc3cccc(Cl)c3)CC2)n1
589	O=C(NCc1cccc(F)c1)N1CCC(OC2CCN(Cc3ccccc3)CC2)CC1
697	Cc1ccc(OCC(O)Cn2c(C3CC3)nc3ccccc32)cc1 (stereo not drawn)

RP-LC retention time [s]	Compound
780	CCc1ccc(NC(=O)Cc2nnc3cc(-c4nc(C)no4)ccn23)cc1
737	COc1ccccc1C(=O)N1C[C@H](c2nc(-c3ccncc3)no2)[C@@H](C)C1
825	Cc1ccc(NC(=O)C2CCCN(c3ncnc4c3oc3ccccc34)C2)cc1 (stereo not drawn)
939	CCOc1ccc(NC(=O)Nc2nccn(-c3ccc(F)cc3)c2=O)cc1
1040	COc1ccccc1-c1noc(Cn2ncn3nc(-c4ccccc4Cl)cc3c2=O)n1
629	Cc1ccccc1CNC(=O)CN1CCN(Cc2ccc(F)cc2Cl)C1=O
915	COC(=O)c1cc(OCC(=O)Nc2ccccc2Cl)c2cc(OC)ccc2n1
1130	CC1=NS(=O)(=O)N(Cc2ccccc2)C=C1C(=O)OCc1noc(-c2cccc(F)c2)n1
846	COc1ccc(NC(=O)N2CCCC(C)(C(=O)NCc3ccccc3)C2)c(OC)c1 (stereo not drawn)
844	CCOc1ccc2nc(NC(=O)CCc3csc(NC(=O)c4ccco4)n3)sc2c1
838	CCSc1nnnn1-c1ccc(NC(=O)c2ccc3nnsc3c2)cc1
1050	CCn1cc(-c2nc(-c3ccc(OC(C)C)cc3)no2)c(=O)c2cc(F)c(N3CCOCC3)cc21
716	CCCNc1cc(N2CCC(CCC(=O)NCc3cccc(C)c3)CC2)ncn1
1090	CCn1cc(-c2nc(C)c(C(=O)NCc3ccccc3F)s2)c2cccnc21
745	Cc1noc(C)c1Cc1ccc(C(=O)NCCc2noc(C3CC3)n2)o1
766	COCCNc1c(-c2ccc(C)cc2)nc2sc(C(=O)NC3CC3)c(C)n12
816	CC(C)C(=O)NCc1csc(C2CCCN(C(=O)CC3CCCCC3)C2)n1 (stereo not drawn)
892	CCN(CC)C(=O)N1CCC(c2noc(-c3ccccc3)n2)C1 (stereo not drawn)
617	CCN1CCCC1CNC(=O)c1nc(-c2ccc3c(c2)OCC(=O)N3C)no1 (stereo not drawn)
742	O=C(NC1CCCc2ccccc21)C1CCN(C(=O)c2cccn2-c2cccnc2)CC1 (stereo not drawn)
758	COc1ccc(-c2cc3c4nn(CC(=O)NC(C)C)c(=O)n4ccn3n2)cc1
770	COc1cccc(N2C=C(C(=O)N3CCCC3)S(=O)(=O)c3ccccc32)c1

RP-LC retention time [s]	Compound
934	COc1cccc(-n2ccnc(NC(=O)Nc3cccc(F)c3)c2=O)c1
825	CCC(=O)Nc1ccc(C2(C(=O)NCC3CC3)CCCCC2)cc1
589	CC1=C(c2ccccc2)S(=O)(=O)N=C1N1CCCN(C(=O)Cn2ccnc2C)CC1
699	O=C(NCCc1noc(C2CC2)n1)C1CCCC1
1120	O=C(NC1CCc2ccccc21)C1CCN(c2ncccc2-c2nc(-c3ccccc3)no2)CC1 (stereo not drawn)
854	Cc1ccc(CNC(=O)C2CCN(S(C)(=O)=O)c3ccccc3O2)cc1 (stereo not drawn)
587	Cc1cc2[nH]c(C(=O)NC(C)c3cccnc3)c(CN3CCCCC3)c2s1 (stereo not drawn)
770	COc1ccccc1N1CCN(C(=O)CN2C(=O)NC(c3ccc(Cl)cc3)C3=C2COC3=O)CC1 (stereo not drawn)
824	CCC1Oc2ccc(S(=O)(=O)N3CCC(C(=O)NCc4ccccc4)CC3)cc2NC1=O (stereo not drawn)
887	Cc1cc2c(c(=O)n(-c3ccc(F)cc3)c(=O)n2CC(=O)Nc2cccc(Cl)c2)n1C
1310	Cc1c(F)cccc1NS(=O)(=O)c1cc(-c2nc(C(C)(C)C)cs2)cs1
977	Cc1cc2nn(CC(=O)NCc3ccc(F)cc3)c(=O)n2c(Nc2ccccc2C)n1
719	O=C(Nc1cccn2cnnc12)c1ccc(Cl)s1
1060	Cc1ccc(NC(=O)Cn2c(C)nc3c(sc4nc(-c5ccccc5)ccc43)c2=O)cc1
726	CC(C)c1noc(-c2ccn3c(CC(=O)N4CCSCC4)nnc3c2)n1
1030	CCc1ccccc1NC(=O)Cn1cnc2c(sc3nc(-c4ccccc4)ccc32)c1=O
621	O=C(Cn1nc2nc(Nc3ccc(F)cc3)ccn2c1=O)N1CCCC1
894	CC(C)N1C(=O)c2cccnc2Sc2cc(NC(=O)COc3ccc(F)cc3)ccc21
904	CCOc1ccc(NC(=O)N2CCC3(CC2)NC(=O)c2ccc(Cl)cc2N3C)cc1
785	COc1ccc(OC)c(NC(=O)c2c(N3CCCC3=O)c3cc(F)ccc3n2C)c1
600	COc1ccccc1NC(=O)Cn1ncc2c(N3CCN(c4ccccn4)CC3)ncnc21
738	Cc1ccccc1CNC(=O)Cn1cnc2onc(C)c2c1=O
